# Literature values, collected in PubChem BioAssay AID1259409 (Chemical Carcinogenesis Research Information System (CCRIS), 2018).
# Test system: rodent chemically induced tumor inhibition, incidence and multiplicity
# Assay: CCRIS tumor inhibitor studies
smiles,measurement,setting,value
CC(C)C[C@H]1C(=O)N2CCC[C@H]2[C@]2(O)O[C@](NC(=O)[C@@H]3C=C4c5cccc6[nH]c(Br)c(c56)C[C@H]4N(C)C3)(C(C)C)C(=O)N12,"tumour outcome (control, treated, inhibition, significance)","Carcinogen: N-METHYL-N-NITROSOUREA, 684-93-5, Dose [Inhibitor]: 0.4 MG/100 G BW 1/D FOR 129 D BEGINNING AT 60 D OF AGE (STUDY DURATION: 223 D), Route [Inhibitor]: SUBCUTANEOUS, Species: RAT, Strain/Sex: SPRAGUE-DAWLEY/FEMALE, Target Tissue: Type of Lesion: MAMMARY GLAND: NOT SPECIFIED, Dose [Carcinogen]: 2.5 MG/100 G BW ONCE AT 50 D AND ONCE AT 57 D OF AGE, Promoter: NONE USED","73%, 37%, 49%, p<0.005"
same,"tumour outcome (control, treated, inhibition, significance)","Carcinogen: N-METHYL-N-NITROSOUREA, 684-93-5, Dose [Inhibitor]: 0.4 MG/100 G BW 1/D FOR 175 D BEGINNING AT 60 D OF AGE (STUDY DURATION: 185 D), Route [Inhibitor]: SUBCUTANEOUS, Species: RAT, Strain/Sex: SPRAGUE-DAWLEY/FEMALE, Target Tissue: Type of Lesion: MAMMARY GLAND: NOT SPECIFIED, Dose [Carcinogen]: 1.25 MG/100 G BW ONCE AT 50 D AND ONCE AT 57 D OF AGE, Promoter: NONE USED","27%, 13%, 52%, not significant"
same,"tumour outcome (control, treated, inhibition, significance)","Carcinogen: N-METHYL-N-NITROSOUREA, 684-93-5, Dose [Inhibitor]: 0.4 MG/100 G BW 1/D PLUS 328 MG RETINYL ACETATE/KG DIET FOR 175 D BEGINNING AT 60 D OF AGE (STUDY DURATION: 185 D), Route [Inhibitor]: SUBCUTANEOUS, Species: RAT, Strain/Sex: SPRAGUE-DAWLEY/FEMALE, Target Tissue: Type of Lesion: MAMMARY GLAND: NOT SPECIFIED, Dose [Carcinogen]: 1.25 MG/100 G BW ONCE AT 50 D AND ONCE AT 57 D OF AGE, Promoter: NONE USED","27%, 0%, 100%, p<0.01"
same,"tumour outcome (control, treated, inhibition, significance)","Carcinogen: N-METHYL-N-NITROSOUREA, 684-93-5, Dose [Inhibitor]: 0.4 MG/100 G BW 1/D PLUS 328 MG RETINYL ACETATE/KG OF DIET, FOR 129 D BEGINNING AT 60 D OF AGE (STUDY DURATION: 223 D), Route [Inhibitor]: SUBCUTANEOUS, Species: RAT, Strain/Sex: SPRAGUE-DAWLEY/FEMALE, Target Tissue: Type of Lesion: MAMMARY GLAND: NOT SPECIFIED, Dose [Carcinogen]: 2.5 MG/100 G BW ONCE AT 50 D AND ONCE AT 57 D OF AGE, Promoter: NONE USED","73%, 7%, 90%, p<0.005"
same,outcome,"Carcinogen: N-METHYL-N-NITROSOUREA, 684-93-5, Dose [Inhibitor]: 400 UG/100 G BW TOGETHER WITH 25 UG/100 G BW TAMOXIFEN 1/D FOR 6 MO BEGINNING 3 D POST CARCINOGEN DOSE, DOSAGE OF BOTH R, Route [Inhibitor]: SUBCUTANEOUS, Species: RAT, Strain/Sex: SPRAGUE-DAWLEY/FEMALE, Target Tissue: Type of Lesion: MAMMARY GLAND: CARCINOMA, Dose [Carcinogen]: 2.5 MG/100 G BW ONCE AT 50 D AND ONCE AT 57 D OF AGE, Promoter: NONE USED","88%, 3%, 97%, p<0.001 (at 4 mo post carcinogen dose); 88%, 28%, 68%, not calcula"
same,outcome,"Carcinogen: N-METHYL-N-NITROSOUREA, 684-93-5, Dose [Inhibitor]: 400 UG/100 G BW TOGETHER WITH 25 UG/100 G BW TAMOXIFEN 1/D FOR 6 MO PLUS 328 MG RETINYL ACETATE/KG DIET FOR 6 MO, DOSAGE, Route [Inhibitor]: SUBCUTANEOUS, Species: RAT, Strain/Sex: SPRAGUE-DAWLEY/FEMALE, Target Tissue: Type of Lesion: MAMMARY GLAND: CARCINOMA, Dose [Carcinogen]: 2.5 MG/100 G BW ONCE AT 50 D AND ONCE AT 57 D OF AGE, Promoter: NONE USED","88%, 0%, 100%, p<0.001 (at 4 mo post carcinogen dose); 88%, 7%, 92%, not calcula"
same,outcome,"Carcinogen: N-ethyl-N'-nitro-N-nitrosoguanidine (ENNG), 4245-77-6, Dose [Inhibitor]: 1 mg/kg bw 5 x a wk up to 14.5 mo of age (half a mo before termination of experiment), Route [Inhibitor]: Subcutaneous, Species: Rat, Strain/Sex: Crj:Donryu/female, Target Tissue: Type of Lesion: Uterus: Adenocarcinoma, Dose [Carcinogen]: 20 mg/kg, Promoter: None","9/25 (36%), 3/23 (13%), p<0.05"
same,"tumour outcome (control, treated, inhibition, significance)","Carcinogen: NONE USED, Dose [Inhibitor]: 0.1 MG IN SALINE 1/D FOR 12 MO BEGINNING AT 2 MO OF AGE (STUDY DURATION: 22 MO), Route [Inhibitor]: SUBCUTANEOUS, Species: MOUSE, Strain/Sex: C3H/FEMALE, Target Tissue: Type of Lesion: MAMMARY GLAND: CARCINOMA, Promoter: NONE USED","24/90 (27%), 1/90 (1%), 96%, p<0.001"
same,"tumour outcome (control, treated, inhibition, significance)","Carcinogen: NONE USED, Dose [Inhibitor]: 0.1 MG IN SALINE 1/D FOR 30 D ON ALTERNATE MO BEGINNING AT 7 MO OF AGE FOR 12 MO (STUDY DURATION: 12 MO), Route [Inhibitor]: SUBCUTANEOUS, Species: MOUSE, Strain/Sex: C3H/FEMALE, Target Tissue: Type of Lesion: MAMMARY GLAND: CARCINOMA, Promoter: NONE USED","36/70 (51%), 9/70 (13%), 74%, p<0.01"
same,"tumour outcome (control, treated, inhibition, significance)","Carcinogen: NONE USED, Dose [Inhibitor]: 0.1 MG/D BEGINNING AT 1 MO OF AGE FOR 16 MO (STUDY DURATION: 16 MO), Route [Inhibitor]: SUBCUTANEOUS, Species: MOUSE, Strain/Sex: C3H/FEMALE, Target Tissue: Type of Lesion: MAMMARY GLAND: TUMOR, Promoter: NONE USED","24/29 (83%), 13/28 (46%), 44%, p<0.01"
same,"tumour outcome (control, treated, inhibition, significance)","Carcinogen: NONE USED, Dose [Inhibitor]: 0.5 MG IN 0.05 ML OLIVE OIL 1/D FOR 7 WK BEGINNING AT 4 WK OF AGE (STUDY DURATION: 26 MO), Route [Inhibitor]: SUBCUTANEOUS, Species: RAT, Strain/Sex: SPRAGUE-DAWLEY/FEMALE, Target Tissue: Type of Lesion: MAMMARY GLAND: TUMOR, Promoter: NONE USED","70%, 32%, 54%, p<0.05"
same,"tumour outcome (control, treated, inhibition, significance)","Carcinogen: NONE USED, Dose [Inhibitor]: 0.5 MG IN 0.05 ML OLIVE OIL 1/D FOR 7 WK BEGINNING AT 11 WK OF AGE (STUDY DURATION: 26 MO), Route [Inhibitor]: SUBCUTANEOUS, Species: RAT, Strain/Sex: SPRAGUE-DAWLEY/FEMALE, Target Tissue: Type of Lesion: MAMMARY GLAND: TUMORS, Promoter: NONE USED","70%, 55%, 21%, p<0.05"
same,"tumour outcome (control, treated, inhibition, significance)","Carcinogen: NONE USED, Dose [Inhibitor]: 8.5 MG/KG 1/D FOR 4 D TO PREGNANT MICE ON D 12 TO D 15 OF PREGNANCY, FEMALE OFFSPRING OBSERVED FOR 10 MO (STUDY DURATION, Route [Inhibitor]: SUBCUTANEOUS, Species: MOUSE, Strain/Sex: SHN/FEMALE, Target Tissue: Type of Lesion: MAMMARY GLAND: NOT SPECIFIED, Promoter: NONE USED","33/38 (87%), 10/13 (77%), 11%, not calculated"
same,"tumour outcome (control, treated, inhibition, significance)","Carcinogen: NONE USED, Dose [Inhibitor]: 40 MG/KG 1/D FOR FIRST 5 D OF POSTNATAL LIFE, OBSERVED FOR 10 MO (STUDY DURATION: 10 MO), Route [Inhibitor]: SUBCUTANEOUS, Species: MOUSE, Strain/Sex: SHN/FEMALE, Target Tissue: Type of Lesion: MAMMARY GLAND: NOT SPECIFIED, Promoter: NONE USED","33/38 (87%), 17/17 (100%), -15%, not significant"
same,"tumour outcome (control, treated, inhibition, significance)","Carcinogen: NONE USED, Dose [Inhibitor]: 100 UG OF 1 MG/ML DISSOLVED IN A MINIMAL AMOUNT OF ETHANOL AND SUSPENDED IN 0.9% NACL 1/D FROM D 7 TO 21 OF PREGNANCY (S, Route [Inhibitor]: SUBCUTANEOUS, Species: MOUSE, Strain/Sex: GR/FEMALE, Target Tissue: Type of Lesion: MAMMARY GLAND: TUMOR, Promoter: NONE USED","39/44 (89%), 24/43 (56%), 37%, p<0.05"
